Read-outs that look alike come from different tables or passages of the source.
Tests used:
Type in all cases: biochemical
human cathepsin L = target: T1, human cathepsin L (Homo sapiens, UniProt P07711); test: Cathepsin L peptidase activity assay (Ki)
T1 construct: purchased CN Biosciences
Outline: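 Run at 25±1° C with DMSO under 1%: buffer was 10 mM BTP pH 6.5 containing 1 mM EDTA, 1 mM CaCl2 and 5 mM 2-mercaptoethanol. Enzyme (1 nM cathepsin L) was added last to start hydrolysis of Ac-Phe-Arg-AMC held at KM^app (~20 μM), followed kinetically by fluorescence at 365/450 nm.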

Wild-type cruzipain = Wild-type cruzipain (Trypanosoma cruzi, UniProt P25779); test: Trypanosoma cruzi cruzipain peptidase activity assay (Ki)
Outline: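 Native cruzipain from T. cruzi Dm28 epimastigotes, 2.5 nM, in 100 mM sodium phosphate pH 6.75 with 1 mM EDTA and 10 mM L-cysteine, 25 °C, DMSO <1%. Rates taken from continuous fluorogenic substrate read; Ki by regression assuming reversible pure-competitive inhibition.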

Bovine cathepsin S = target: T2, Bovine cathepsin S (Bos taurus, UniProt P25326); test: Cathepsin S peptidase activity assay, bovine enzyme (Ki)
T2 construct: purchased CN Biosciences
Outline: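 Bovine cathepsin S activity followed by fluorescence increase from substrate conversion to product over time, enzyme added to start the reaction, at 25±1° C. Buffer 10 mM bis-tris-propane pH 6.5 with 1 mM EDTA, 5 mM 2-mercaptoethanol, 1 mM CaCl2; DMSO kept below 1% (vol./vol.).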

[1] = Table 5, read-out: Ki Human Cathepsin L
[2] = Table 5, read-out: Ki Cruzipain
[3] = read-out: Ki, inhibitors of cruzain and cruzipains
[4] = Table 5, read-out: Ki Bovine Cathepsin S
[5] = read-out: Ki, inhibitors of cathepsin L
[6] = species of cathepsin S not given, read-out: Ki, inhibitors of cathepsin S

Sequence of Wild-type cruzipain (P25779 whole entry): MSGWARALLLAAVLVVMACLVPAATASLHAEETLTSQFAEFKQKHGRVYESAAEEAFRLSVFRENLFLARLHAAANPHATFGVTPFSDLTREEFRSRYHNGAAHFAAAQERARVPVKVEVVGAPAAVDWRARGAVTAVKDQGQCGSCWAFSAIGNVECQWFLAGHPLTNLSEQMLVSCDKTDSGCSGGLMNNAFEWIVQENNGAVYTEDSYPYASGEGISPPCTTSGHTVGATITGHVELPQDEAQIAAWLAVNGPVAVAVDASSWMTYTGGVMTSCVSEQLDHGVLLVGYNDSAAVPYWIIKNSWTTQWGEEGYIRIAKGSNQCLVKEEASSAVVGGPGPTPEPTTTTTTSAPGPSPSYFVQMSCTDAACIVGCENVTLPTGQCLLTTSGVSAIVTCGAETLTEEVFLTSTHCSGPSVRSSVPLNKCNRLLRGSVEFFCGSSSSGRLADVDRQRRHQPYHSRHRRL
T1 sequence (P07711 114-333): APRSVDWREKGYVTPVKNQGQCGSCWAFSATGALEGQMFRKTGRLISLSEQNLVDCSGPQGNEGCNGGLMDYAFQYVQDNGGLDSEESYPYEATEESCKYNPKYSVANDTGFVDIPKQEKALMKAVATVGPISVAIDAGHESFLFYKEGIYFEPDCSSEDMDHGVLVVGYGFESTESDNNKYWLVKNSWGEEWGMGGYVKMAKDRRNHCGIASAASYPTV
T2 sequence (P25326 115-331): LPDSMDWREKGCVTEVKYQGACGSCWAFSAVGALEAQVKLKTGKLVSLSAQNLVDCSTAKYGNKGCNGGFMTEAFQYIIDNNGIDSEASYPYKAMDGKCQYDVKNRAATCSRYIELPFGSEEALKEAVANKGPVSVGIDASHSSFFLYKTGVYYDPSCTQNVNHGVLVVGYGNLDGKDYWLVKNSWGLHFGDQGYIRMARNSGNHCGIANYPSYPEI

CC(C)C[C@H](NC(=O)c1ccc(-c2cccs2)cc1)C(=O)N1CC[C@@H]2[C@H]1C(=O)CN2C(=O)c1ccccc1 [Example 2, (3aR,6aS)-N-[(1S)-1-(4-Benzoyl-6-oxo-hexahydro-pyrrolo[3,2-b]pyrrole-1-carbonyl)-3-methyl-butyl]-4-thiophen-2-yl-benzamide]
Ki (human cathepsin L; [1]): > 3 µM | Ki (Wild-type cruzipain; [2]): > 0.3 µM | Ki (Wild-type cruzipain; [3]): < 5 µM | Ki (Bovine cathepsin S; [4]): > 1 µM

CC(C)C[C@H](NC(=O)c1cc2ccccc2s1)C(=O)N1CC[C@@H]2[C@H]1C(=O)CN2C(=O)c1ccccc1 [Example 7, (3aR,6aS)-Benzo[b]thiophene-2-carboxylic acid [(1S)-1-(4-benzoyl-6-oxo-hexahydro-pyrrolo[3,2-b]pyrrole-1-carbonyl)-3-methyl-butyl]-amide]
Ki (human cathepsin L; [5]): < 5 µM | Ki (Wild-type cruzipain; [3]): < 5 µM | Ki (Bovine cathepsin S; [6]): < 5 µM

CC(C)C[C@H](NC(=O)c1ccc(N(C)C)cc1)C(=O)N1CC[C@@H]2[C@H]1C(=O)CN2C(=O)c1ccccc1 [Example 14, (3aR,6aS)-N-[(1S)-1-(4-Benzoyl-6-oxo-hexahydro-pyrrolo[3,2-b]pyrrole-1-carbonyl)-3-methyl-butyl]-4-dimethylamino-benzamide]
Ki (human cathepsin L; [5]): < 5 µM | Ki (Wild-type cruzipain; [3]): < 5 µM | Ki (Bovine cathepsin S; [6]): < 5 µM

CC(C)C[C@H](NC(=O)c1cccc(N(C)C)c1)C(=O)N1CC[C@@H]2[C@H]1C(=O)CN2C(=O)c1cccc(S(C)(=O)=O)c1 [Example 59, (3aR,6aS)-3-Dimethylamino-N-{(1S)-1-[4-(3-methanesulfonyl-benzoyl)-6-oxo-hexahydro-pyrrolo[3,2-b]pyrrole-1-carbonyl]-3-methyl-butyl}-benzamide]
Ki (human cathepsin L; [5]): < 5 µM | Ki (Wild-type cruzipain; [3]): < 5 µM | Ki (Bovine cathepsin S; [6]): < 5 µM

CC(C)C[C@H](NC(=O)c1ccc2c(c1)CCCN2)C(=O)N1CC[C@@H]2[C@H]1C(=O)CN2C(=O)c1ccccc1 [Example 87, (3aR,6aS)-1,2,3,4-Tetrahydro-quinoline-6-carboxylic acid [(1S)-1-(4-benzoyl-6-oxo-hexahydro-pyrrolo[3,2-b]pyrrole-1-carbonyl)-3-methyl-butyl]-amide]
Ki (human cathepsin L; [5]): < 5 µM | Ki (Wild-type cruzipain; [3]): < 5 µM | Ki (Bovine cathepsin S; [6]): < 5 µM

CC(C)C[C@H](NC(=O)c1ccc2ncsc2c1)C(=O)N1CC[C@@H]2[C@H]1C(=O)CN2C(=O)c1ccccc1 [Example 90, (3aR,6aS)-Benzothiazole-6-carboxylic acid [(1S)-1-(4-benzoyl-6-oxo-hexahydro-pyrrolo[3,2-b]pyrrole-1-carbonyl)-3-methyl-butyl]-amide]
Ki (human cathepsin L; [5]): < 5 µM | Ki (Wild-type cruzipain; [3]): < 5 µM | Ki (Bovine cathepsin S; [6]): < 5 µM

CC(C)C[C@H](NC(=O)c1ccc(-n2cccn2)cc1)C(=O)N1CC[C@@H]2[C@H]1C(=O)CN2C(=O)c1ccccc1 [Example 91, (3aR,6aS)-N-[(1S)-1-(4-Benzoyl-6-oxo-hexahydro-pyrrolo[3,2-b]pyrrole-1-carbonyl)-3-methyl-butyl]-4-pyrazol-1-yl-benzamide]
Ki (human cathepsin L; [5]): < 5 µM | Ki (Wild-type cruzipain; [3]): < 5 µM | Ki (Bovine cathepsin S; [6]): < 5 µM

CC(C)C[C@H](NC(=O)c1ccc(N(C)C)cc1)C(=O)N1CC[C@@H]2[C@H]1C(=O)CN2C(=O)c1csc2ccccc12 [Example 103, (3aR,6aS)-N-{(1S)-1-[4-(Benzo[b]thiophene-3-carbonyl)-6-oxo-hexahydro-pyrrolo[3,2-b]pyrrole-1-carbonyl]-3-methyl-butyl}-4-dimethylamino-benzamide]
Ki (human cathepsin L; [5]): < 5 µM | Ki (Wild-type cruzipain; [3]): < 5 µM | Ki (Bovine cathepsin S; [6]): < 5 µM

CC(=O)N[C@@H](CC(C)C)C(=O)N1CC(=O)[C@@H]2[C@H]1CCN2C(=O)[C@H](CC(C)C)NC(=O)c1ccc(N(C)C)cc1 [Example 151, (3aR,6aS)-N-{(1S)-1-[4-((2S)-2-Acetylamino-4-methyl-pentanoyl)-6-oxo-hexahydro-pyrrolo[3,2-b]pyrrole-1-carbonyl]-3-methyl-butyl}-4-dimethylamino-benzamide]
Ki (human cathepsin L; [5]): < 5 µM | Ki (Wild-type cruzipain; [3]): < 5 µM | Ki (Bovine cathepsin S; [6]): < 5 µM

CC(C)C[C@H](NC(=O)c1ccc(N(C)C)cc1)C(=O)N1CC[C@@H]2[C@H]1C(=O)CN2C(=O)[C@@H](NC(=O)OCc1ccccc1)C(C)C [Example 158, (3aS,6aR)-((S)-1-{4-[(2S)-2-(4-Dimethylamino-benzoylamino)-4-methyl-pentanoyl]-3-oxo-hexahydro-pyrrolo[3,2-b]pyrrole-1-carbonyl}-2-methyl-propyl)-carbamic acid benzyl ester]
Ki (human cathepsin L; [5]): < 5 µM | Ki (Wild-type cruzipain; [3]): < 5 µM | Ki (Bovine cathepsin S; [6]): < 5 µM

CC(C)C[C@H](NC(=O)c1ccc(OC(F)(F)F)cc1)C(=O)N1CC[C@@H]2[C@H]1C(=O)CN2C(=O)c1ccccc1 [Example 173, (3aR,6aS)-N-[(1S)-1-(4-Benzoyl-6-oxo-hexahydro-pyrrolo[3,2-b]pyrrole-1-carbonyl)-3-methyl-butyl]-4-trifluoromethoxy-benzamide]
Ki (human cathepsin L; [5]): < 5 µM | Ki (Wild-type cruzipain; [3]): < 5 µM | Ki (Bovine cathepsin S; [6]): < 5 µM

CC(C)C[C@H](NC(=O)c1ccc(N2CCNCC2)cc1)C(=O)N1CC[C@@H]2[C@H]1C(=O)CN2C(=O)c1ccccc1 [Example 194, (3aR,6aS)-N-[(1S)-1-(4-Benzoyl-6-oxo-hexahydro-pyrrolo[3,2-b]pyrrole-1-carbonyl)-3-methyl-butyl]-4-piperazin-1-yl-benzamide]
Ki (human cathepsin L; [5]): < 5 µM | Ki (Wild-type cruzipain; [3]): < 5 µM | Ki (Bovine cathepsin S; [6]): < 5 µM

CC(C)C[C@H](NC(=O)c1cccc(N2CCNCC2)c1)C(=O)N1CC[C@@H]2[C@H]1C(=O)CN2C(=O)c1ccccc1 [Example 247, (3aR,6aS)-N-[(1S)-1-(4-Benzoyl-6-oxo-hexahydro-pyrrolo[3,2-b]pyrrole-1-carbonyl)-3-methyl-butyl]-3-piperazin-1-yl-benzamide]
Ki (human cathepsin L; [5]): < 5 µM | Ki (Wild-type cruzipain; [3]): < 5 µM | Ki (Bovine cathepsin S; [6]): < 5 µM

CC(C)C[C@H](NC(=O)c1ccc(C(C)(C)C)cc1)C(=O)N1NC[C@@H]2[C@H]1C(=O)CN2C(=O)c1ccccc1 [Example 249a, (3aR,6aS)-N-[(1S)-1-(4-benzoyl-6-oxo-hexahydropyrrolo[3,2-c]pyrazole-1-carbonyl)-3-methylbutyl]-4-tert-butylbenzamide]
Ki (human cathepsin L; [5]): < 5 µM | Ki (Wild-type cruzipain; [3]): < 5 µM | Ki (Bovine cathepsin S; [6]): < 5 µM

CC(C)CC(NC(=O)c1ccc(N)cc1)C(=O)N1NC[C@@H]2[C@H]1C(=O)CN2C(=O)c1ccccc1 (stereo partly drawn) [Example 249b, (3aR,6aS)-4-amino-N-[1-(4-benzoyl-6-oxo-hexahydropyrrolo[3,2-c]pyrazole-1-carbonyl)-3-methylbutyl)benzamide]
Ki (human cathepsin L; [5]): < 5 µM | Ki (Wild-type cruzipain; [3]): < 5 µM | Ki (Bovine cathepsin S; [6]): < 5 µM

CC(C)C[C@H](NC(=O)c1ccc(N)cc1)C(=O)N1NC[C@@H]2[C@H]1C(=O)CN2C(=O)c1cccc(S(C)(=O)=O)c1 [Example 249c, (3aR,6aS)-4-amino-N-{(1S)-1-[4-(3-methanesulfonylbenzoyl)-6-oxo-hexahydropyrrolo [3,2-c]pyrazole-1-carbonyl]-3-methylbutyl}benzamide]
Ki (human cathepsin L; [5]): < 5 µM | Ki (Wild-type cruzipain; [3]): < 5 µM | Ki (Bovine cathepsin S; [6]): < 5 µM

O=C(N[C@@H](CC1CCCCC1)C(=O)N1CC[C@@H]2[C@H]1C(=O)CN2C(=O)c1ccccc1)c1ccsc1 [Example 250, (3aR,6aS)-Thiophene-3-carboxylic acid [(1S)-2-(4-benzoyl-6-oxo-hexahydro-pyrrolo[3,2-b]pyrrole-1-yl)-1-cyclohexylmethyl-2-oxo-ethyl]-amide]
Ki (human cathepsin L; [1]): > 1 µM | Ki (human cathepsin L; [5]): < 5 µM | Ki (Wild-type cruzipain; [2]): > 5 µM | Ki (Bovine cathepsin S; [4]): < 0.1 µM

O=C(N[C@@H](Cc1ccc(O)cc1)C(=O)N1CC[C@@H]2[C@H]1C(=O)CN2C(=O)c1ccccc1)c1cccc2ccccc12 [Example 296, (3aR,6aS)-Naphthalene-1-carboxylic acid [(1S)-2-(4-benzoyl-6-oxo-hexahydro-pyrrolo[3,2-b]pyrrole-1-yl)-1-(4-hydroxybenzyl)-2-oxo-ethyl]-amide]
Ki (human cathepsin L; [1]): < 0.2 µM | Ki (Wild-type cruzipain; [2]): > 1 µM | Ki (Wild-type cruzipain; [3]): < 5 µM | Ki (Bovine cathepsin S; [4]): > 5 µM

CC(C)(C)c1ccc(C(=O)N[C@@H](Cc2ccc(O)cc2)C(=O)N2CC[C@@H]3[C@H]2C(=O)CN3C(=O)c2ccccc2)cc1 [Example 346, (3aR,6aS)-N-[(1S)-2-(4-Benzoyl-6-oxo-hexahydro-pyrrolo[3,2-b]pyrrol-1-yl)-1-(4-hydroxybenzyl)-2-oxo-ethyl]-4-tert-butyl-benzamide]
Ki (human cathepsin L; [1]): > 3 µM | Ki (human cathepsin L; [5]): < 5 µM | Ki (Wild-type cruzipain; [2]): < 0.2 µM | Ki (Bovine cathepsin S; [4]): > 10 µM
